Patent publication US20070059720A9 (priority 2004, published 2007)

Tests used:
MKP3 = target: T1, MKP3 (Homo sapiens, UniProt Q16828); assay: Phosphatase assay with pNPP on V5 immunoprecipitates of treated MKP3 cells; type: biochemical; conditions: MKP3 transfectants treated 2 hours; relative to control-treated (intermediate)
T1 construct: expressed in transfected cells
T1 sequence (Q16828 1-381): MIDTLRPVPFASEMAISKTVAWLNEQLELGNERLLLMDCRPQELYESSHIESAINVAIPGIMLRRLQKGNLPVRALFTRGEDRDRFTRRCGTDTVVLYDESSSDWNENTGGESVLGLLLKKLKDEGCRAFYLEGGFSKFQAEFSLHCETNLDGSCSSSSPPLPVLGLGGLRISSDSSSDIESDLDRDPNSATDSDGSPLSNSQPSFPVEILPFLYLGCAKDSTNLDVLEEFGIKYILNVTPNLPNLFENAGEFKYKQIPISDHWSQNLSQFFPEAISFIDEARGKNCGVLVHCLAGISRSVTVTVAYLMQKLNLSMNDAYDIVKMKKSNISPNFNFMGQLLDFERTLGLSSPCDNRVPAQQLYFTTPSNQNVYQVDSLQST
Method: MKP3-overexpressing cells and control vector transfected cells were treated as described above with ethanol, E2, or 4-OH-Tam, and lysed in buffer B containing 20 mM Tris-HCl (pH 7.0), 150 mM NaCl, 1% Triton X-100, 0.25 M sucrose, 1 mM EDTA, 1 mM EGTA, 0.1% β-mercaptoethanol, 1 mM PMSF, and 1 μg/ml leupeptin. The cell lysates were cleared and the protein concentrations were determined as detailed above. 300 μg of cell lysate at 1 μg/μl was immunoprecipitated by the addition of 1 μg anti-V5 antiserum, and 20 μl 50% protein G slurry. […] The reactions were then quenched by the addition of 20 μl 5N NaOH, and pNPP hydrolysis was measured at 405 nm. […] The amount of product p-nitrophenol was determined from the absorbance at 405 nm. […]
The observed changes in pMAPK levels in MKP3 overexpressing cells was further characterized. […] Using the artificial substrate pNPP to measure endogenous phosphatase activity, there was an inverse relationship between measured phosphatase activity and pMAPK levels in the MKP3 transfectants. […] There were no observed changes in the ability of MKP3 to bind to MAPK, as measured by co-immunoprecipitation and immunoblot analysis (FIG. 5H). When the levels of MKP3-bound ERK2 were compared between the different hormonal treatments, no differences were detected (C, E, T, IP:V5 lanes). […]

MCF-7-MKP3 cells = assay: Anchorage-independent soft agar colony formation, MKP3-overexpressing MCF-7 transfectants; type: cell-based, human
Method: MCF-7 cells were originally obtained from Dr. Benita Katzenellebogen, but have been maintained in the inventors' laboratory for over 10 years (Fuqua et al., 2000). MCF-7 cells were maintained in Minimal Essential Medium (MEM, InVitrogen) supplemented with 5% fetal bovine serum (Summit Biotechnology, Fort Collins, Colo.), 200 U/ml penicillin, and 200 μg/ml streptomycin. Cells were incubated at 37° C. in 5% CO2. To generate MCF-7 cells stably overexpressing MKP3, 5 μg of the plasmid pcDNA3-MKP3-V5 (Furukawa et al., 2003) or empty vector (pcDNA3-His-V5, InVitrogen), were transfected into the cells using Fugene 6 reagent Roche Clinical Laboratories, Indianapolis, Ind.) in 100 mm tissue culture dishes following the manufacturer's protocol. Stable clones overexpressing MKP3 were selected as described (Fuqua et al., 2000), and positive clones were identified using immunoblot analysis with an anti-V5 antibody (1:5000 dilution)
Cells were starved for 2 days in PRF MEM (InVitrogen) supplemented with 5% fetal bovine serum (FBS, Summit Biotechnology, Fort Collins, Colo.), 6 ng/ml insulin, 200 units/ml penicillin, and 200 μg/ml streptomycin. Soft agar assays were performed in sixwell plates. Into each well, 1.5 ml of prewarmed (50° C.) 0.7% SeaPlaque agarose (FMC, Rockland, Me.) was added and dissolved in PRF MEM supplemented with 5% charcoal stripped FBS (Summit, Fort Collins, Colo.) to serve as the bottom layer, and allowed to solidify at 4° C. until to use. 0.5×10^4 cells as a single cell suspension were suspended in prewarmed (37° C.) of the same media, 4 ml of 0.5% SeaPlaque agarose was then added, and this suspension then plated as the top layer by adding it dropwise to the solidified bottom layer plates. Plates were cooled for 2 hours, and then transferred to a 37° C. humidified incubator. Two days after plating, media containing control vehicle, 1 nM estradiol, 100 nM 4-OH-Tam, 100 nM OHT plus 10 nM ICI, or 100 nM OHT plus 20 nM […] was added to the top cell layer, and the appropriate media was replaced every two days. After 14 days, the colonies were fixed, and the colony number of colonies >50 cells from quadruplicate assays were then counted. The data shown is the mean colony number of four plates, and is representative of two independent experiments.
In pancreatic cells, ectopic expression of MKP3 is reported to result in a suppression of cell growth (Fuqua et al., 2003). Thus, the growth characteristics of the MCF-7 stable MKP3 transfectants under different hormonal conditions were investigated using anchorageindependent soft agar assay (FIG. 4B).

Row | SMILES | MKP3 phosphatase activity (pNPP hydrolysis) (MKP3) | estrogen-induced colony formation of MCF-7-MKP3 clones (MCF-7-MKP3 cells; 1 nM estradiol, versus vector control cells) | increase in number of soft agar colonies formed in the presence of Tam, MKP3-overexpressing transfectants compared to vector control cells (MCF-7-MKP3 cells; 100 nM 4-OH-Tam, two MKP3 clones, P<0.05)
1 | C[C@]12CC[C@@H]3c4ccc(O)cc4CC[C@H]3[C@@H]1CC[C@@H]2O [E2, 17β-Estradiol] | highest | equivalent to those obtained with vector control cells | –
2 | CC/C(=C(\c1ccccc1)c1ccc(OCCN(C)C)cc1)c1ccccc1 [Tam, tamoxifen] | lowest | – | ~20 fold
